Target: Adenosine kinase (Rattus norvegicus, UniProt Q64640)
Assay: ADK Inhibition Assay
Conditions: pH 7.5; 23 °C
Protocol: ADK activity was monitored by a radiochemical assay, which measures the conversion of radioactive Ado ([U-14C] adenosine or [2-3H] adenosine) to AMP in the presence of ATP and MgCl2. The radioactivity incorporated was directly proportional to the conversion rate. The reaction was terminated by aliquoting the reaction mixture onto DE-81 anion exchange filter disks. The filter disks were then dried, washed, and counted. Bound radioactivity was determined by standard scintillation spectrometry at an efficiency of 55%.

Chain of Adenosine kinase (Q64640 whole entry): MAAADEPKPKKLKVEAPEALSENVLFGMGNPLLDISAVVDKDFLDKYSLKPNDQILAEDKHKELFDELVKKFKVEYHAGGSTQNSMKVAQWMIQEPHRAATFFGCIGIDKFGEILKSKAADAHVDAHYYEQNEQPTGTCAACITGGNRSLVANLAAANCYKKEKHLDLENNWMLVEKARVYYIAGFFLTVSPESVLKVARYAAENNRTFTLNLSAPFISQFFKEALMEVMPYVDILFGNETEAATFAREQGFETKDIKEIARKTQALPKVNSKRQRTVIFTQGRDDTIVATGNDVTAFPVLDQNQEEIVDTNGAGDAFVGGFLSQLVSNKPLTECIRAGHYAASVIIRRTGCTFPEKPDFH

Question: With Cc1nc(N)c(-c2ccccc2)c(C#Cc2ccc(N(C)C)cc2)n1 as the molecule, how does the IC50 read?
Answer: The IC50 was greater than 1000 nM.
